From the NIST ThermoML archive (doi:10.1016/j.jct.2016.10.023)
± gives the expanded uncertainty stated by the source.

Experiment: xn = mol fraction of the nth substance listed
Conditions: Constant-volume piezometry

CCCCC [pentane] + CCCO
mass density (533.15 K, 7168 kPa, Fluid (supercritical or subcritical phases), x1 = 0.8): 234.59 ± 1.2 kg/m3
mass density (533.15 K, 7364 kPa, Fluid (supercritical or subcritical phases), x1 = 0.8): 245.22 ± 1.2 kg/m3
mass density (533.15 K, 7629 kPa, Fluid (supercritical or subcritical phases), x1 = 0.2): 378.44 ± 1.9 kg/m3
mass density (533.15 K, 7638 kPa, Fluid (supercritical or subcritical phases), x1 = 0.8): 258.44 ± 1.3 kg/m3
mass density (533.15 K, 7786 kPa, Fluid (supercritical or subcritical phases), x1 = 0.2): 383.24 ± 1.9 kg/m3
mass density (533.15 K, 7963 kPa, Fluid (supercritical or subcritical phases), x1 = 0.8): 272.4 ± 1.4 kg/m3
mass density (533.15 K, 8071 kPa, Fluid (supercritical or subcritical phases), x1 = 0.9): 281.87 ± 1.4 kg/m3
mass density (533.15 K, 8098 kPa, Fluid (supercritical or subcritical phases), x1 = 0.2): 391.08 ± 2 kg/m3
mass density (533.15 K, 8423 kPa, Fluid (supercritical or subcritical phases), x1 = 0.8): 288.24 ± 1.4 kg/m3
mass density (533.15 K, 8569 kPa, Fluid (supercritical or subcritical phases), x1 = 0.9): 301.54 ± 1.5 kg/m3
mass density (533.15 K, 8748 kPa, Fluid (supercritical or subcritical phases), x1 = 0.8): 299.05 ± 1.5 kg/m3
mass density (533.15 K, 9002 kPa, Fluid (supercritical or subcritical phases), x1 = 0.9): 312.17 ± 1.6 kg/m3
mass density (533.15 K, 9374 kPa, Fluid (supercritical or subcritical phases), x1 = 0.2): 418.49 ± 2.1 kg/m3
mass density (533.15 K, 9413 kPa, Fluid (supercritical or subcritical phases), x1 = 0.8): 315.21 ± 1.6 kg/m3
mass density (533.15 K, 10061 kPa, Fluid (supercritical or subcritical phases), x1 = 0.9): 333.87 ± 1.7 kg/m3
mass density (533.15 K, 10217 kPa, Fluid (supercritical or subcritical phases), x1 = 0.8): 333.69 ± 1.7 kg/m3
mass density (533.15 K, 10835 kPa, Fluid (supercritical or subcritical phases), x1 = 0.8): 345.21 ± 1.7 kg/m3
mass density (533.15 K, 11530 kPa, Fluid (supercritical or subcritical phases), x1 = 0.9): 353.95 ± 1.8 kg/m3
mass density (533.15 K, 12119 kPa, Fluid (supercritical or subcritical phases), x1 = 0.8): 361.76 ± 1.8 kg/m3
mass density (533.15 K, 13530 kPa, Fluid (supercritical or subcritical phases), x1 = 0.2): 470.12 ± 2.4 kg/m3
mass density (533.15 K, 17294 kPa, Fluid (supercritical or subcritical phases), x1 = 0.9): 407.1 ± 2 kg/m3
mass density (533.15 K, 18236 kPa, Fluid (supercritical or subcritical phases), x1 = 0.8): 418.01 ± 2.1 kg/m3
mass density (533.15 K, 19667 kPa, Fluid (supercritical or subcritical phases), x1 = 0.2): 509.31 ± 2.6 kg/m3
mass density (533.15 K, 29155 kPa, Fluid (supercritical or subcritical phases), x1 = 0.8): 466.47 ± 2.4 kg/m3
mass density (533.15 K, 29696 kPa, Fluid (supercritical or subcritical phases), x1 = 0.2): 546.72 ± 2.8 kg/m3
mass density (533.15 K, 39686 kPa, Fluid (supercritical or subcritical phases), x1 = 0.8): 495.86 ± 2.5 kg/m3
mass density (533.15 K, 44516 kPa, Fluid (supercritical or subcritical phases), x1 = 0.2): 580.98 ± 2.9 kg/m3
mass density (543.15 K, 1370 kPa, Gas, x1 = 0.8): 22.5 ± 0.07 kg/m3
mass density (543.15 K, 1634 kPa, Gas, x1 = 0.2): 24.9 ± 0.08 kg/m3
mass density (543.15 K, 2088 kPa, Gas, x1 = 0.8): 36.65 ± 0.11 kg/m3
mass density (543.15 K, 3070 kPa, Gas, x1 = 0.8): 58.36 ± 0.18 kg/m3
mass density (543.15 K, 3378 kPa, Gas, x1 = 0.2): 52.95 ± 0.16 kg/m3
mass density (543.15 K, 3671 kPa, Gas, x1 = 0.8): 73.72 ± 0.23 kg/m3
mass density (543.15 K, 3909 kPa, Fluid (supercritical or subcritical phases), x1 = 0.9): 83.3 ± 0.42 kg/m3
mass density (543.15 K, 4468 kPa, Gas, x1 = 0.2): 91.32 ± 0.29 kg/m3
mass density (543.15 K, 4745 kPa, Fluid (supercritical or subcritical phases), x1 = 0.8): 106.3 ± 0.54 kg/m3
mass density (543.15 K, 5031 kPa, Fluid (supercritical or subcritical phases), x1 = 0.2): 114.24 ± 0.59 kg/m3
mass density (543.15 K, 5063 kPa, Fluid (supercritical or subcritical phases), x1 = 0.9): 123.23 ± 0.63 kg/m3
mass density (543.15 K, 5339 kPa, Fluid (supercritical or subcritical phases), x1 = 0.9): 133.99 ± 0.68 kg/m3
mass density (543.15 K, 5679 kPa, Fluid (supercritical or subcritical phases), x1 = 0.2): 150.2 ± 0.77 kg/m3
mass density (543.15 K, 5755 kPa, Fluid (supercritical or subcritical phases), x1 = 0.8): 140.17 ± 0.71 kg/m3
mass density (543.15 K, 6004 kPa, Fluid (supercritical or subcritical phases), x1 = 0.9): 163.8 ± 0.83 kg/m3
mass density (543.15 K, 6026 kPa, Fluid (supercritical or subcritical phases), x1 = 0.2): 175.44 ± 0.92 kg/m3
mass density (543.15 K, 6054 kPa, Fluid (supercritical or subcritical phases), x1 = 0.8): 155.89 ± 0.8 kg/m3
mass density (543.15 K, 6187 kPa, Fluid (supercritical or subcritical phases), x1 = 0.2): 189.45 ± 0.98 kg/m3
mass density (543.15 K, 6358 kPa, Fluid (supercritical or subcritical phases), x1 = 0.8): 169.62 ± 0.87 kg/m3
mass density (543.15 K, 6471 kPa, Fluid (supercritical or subcritical phases), x1 = 0.2): 219.88 ± 1.1 kg/m3
mass density (543.15 K, 6471 kPa, Fluid (supercritical or subcritical phases), x1 = 0.8): 175.86 ± 0.89 kg/m3
mass density (543.15 K, 6570 kPa, Fluid (supercritical or subcritical phases), x1 = 0.9): 189.27 ± 0.96 kg/m3
mass density (543.15 K, 6584 kPa, Fluid (supercritical or subcritical phases), x1 = 0.8): 180.65 ± 0.92 kg/m3
mass density (543.15 K, 6716 kPa, Fluid (supercritical or subcritical phases), x1 = 0.2): 245.23 ± 1.3 kg/m3
mass density (543.15 K, 6834 kPa, Fluid (supercritical or subcritical phases), x1 = 0.2): 258.94 ± 1.3 kg/m3
mass density (543.15 K, 6836 kPa, Fluid (supercritical or subcritical phases), x1 = 0.8): 192.97 ± 0.98 kg/m3
mass density (543.15 K, 6846 kPa, Fluid (supercritical or subcritical phases), x1 = 0.9): 202.18 ± 1 kg/m3
mass density (543.15 K, 6875 kPa, Fluid (supercritical or subcritical phases), x1 = 0.2): 262.64 ± 1.4 kg/m3
mass density (543.15 K, 6963 kPa, Fluid (supercritical or subcritical phases), x1 = 0.2): 272.09 ± 1.4 kg/m3
mass density (543.15 K, 7154 kPa, Fluid (supercritical or subcritical phases), x1 = 0.2): 290.25 ± 1.5 kg/m3
mass density (543.15 K, 7246 kPa, Fluid (supercritical or subcritical phases), x1 = 0.9): 220.47 ± 1.1 kg/m3
mass density (543.15 K, 7269 kPa, Fluid (supercritical or subcritical phases), x1 = 0.8): 213.64 ± 1.1 kg/m3
mass density (543.15 K, 7363 kPa, Fluid (supercritical or subcritical phases), x1 = 0.2): 306.52 ± 1.6 kg/m3
mass density (543.15 K, 7405 kPa, Fluid (supercritical or subcritical phases), x1 = 0.8): 219.4 ± 1.1 kg/m3
mass density (543.15 K, 7419 kPa, Fluid (supercritical or subcritical phases), x1 = 0.2): 310.74 ± 1.6 kg/m3
mass density (543.15 K, 7511 kPa, Fluid (supercritical or subcritical phases), x1 = 0.2): 318.45 ± 1.6 kg/m3
mass density (543.15 K, 7520 kPa, Fluid (supercritical or subcritical phases), x1 = 0.9): 232.83 ± 1.2 kg/m3
mass density (543.15 K, 7591 kPa, Fluid (supercritical or subcritical phases), x1 = 0.9): 236.29 ± 1.2 kg/m3
mass density (543.15 K, 7689 kPa, Fluid (supercritical or subcritical phases), x1 = 0.9): 240.69 ± 1.2 kg/m3
mass density (543.15 K, 7747 kPa, Fluid (supercritical or subcritical phases), x1 = 0.8): 234.47 ± 1.2 kg/m3
mass density (543.15 K, 7760 kPa, Fluid (supercritical or subcritical phases), x1 = 0.9): 244 ± 1.2 kg/m3
mass density (543.15 K, 7964 kPa, Fluid (supercritical or subcritical phases), x1 = 0.2): 340.91 ± 1.7 kg/m3
mass density (543.15 K, 7983 kPa, Fluid (supercritical or subcritical phases), x1 = 0.8): 245.1 ± 1.2 kg/m3
mass density (543.15 K, 8042 kPa, Fluid (supercritical or subcritical phases), x1 = 0.2): 343.7 ± 1.7 kg/m3
mass density (543.15 K, 8294 kPa, Fluid (supercritical or subcritical phases), x1 = 0.8): 258.31 ± 1.3 kg/m3
mass density (543.15 K, 8708 kPa, Fluid (supercritical or subcritical phases), x1 = 0.8): 272.26 ± 1.4 kg/m3
mass density (543.15 K, 8845 kPa, Fluid (supercritical or subcritical phases), x1 = 0.9): 281.73 ± 1.4 kg/m3
